These results are taken from paper PMC6134994, “Discovery of Potent Disheveled/Dvl Inhibitors Using Virtual Screening Optimized With NMR-Based Docking Performance Index” (Frontiers in Pharmacology, 2018).

Structures are written as SMILES.

Assay [1] concerns the target T1, hDvl1-PDZ (human Dvl1 PDZ domain) (Homo sapiens, UniProt O14640, C338A/W339T).
T1 construct: PDZ domain, residues 246–340
T1 sequence (O14640 246-340 C338A/W339T): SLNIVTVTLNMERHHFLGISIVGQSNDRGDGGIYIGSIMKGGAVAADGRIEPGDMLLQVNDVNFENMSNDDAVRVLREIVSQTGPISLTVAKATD
The assay can be described thus: NMR chemical shift perturbation at […] equivalents (averaged normalized shift). Format: binding.

For assay [2], the target named is T2, mZO1-PDZ1 (mouse ZO-1 first PDZ domain) (Mus musculus, UniProt P39447).
T2 construct: gene Tjp1
T2 sequence (P39447 18-110): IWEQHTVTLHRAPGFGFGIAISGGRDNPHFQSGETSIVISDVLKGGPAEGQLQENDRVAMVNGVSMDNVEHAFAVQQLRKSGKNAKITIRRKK
The assay can be described thus: NMR chemical shift perturbation (1H-15N HSQC).

Turning to `CC(=O)C(=NNc1cccc(S(=O)(=O)Nc2ccccc2C(=O)O)c1)C(=O)c1ccccc1` [NPL-3009], in assay [1], the Δδave/ppm is 0.044 ppm. For `O=C(Cc1ccccc1)Nc1cccc(C(=O)Nc2ccccc2C(=O)O)c1` [CalBioChem-322338], in assay [2], the “NMR chemical shift perturbation (1H-15N HSQC)” value was “residues surrounding the canonical binding site of mZO1-PDZ1 showed substantial CSP upon CalBioChem-322338”.
